Assay results reported in US10767179B2, “MicroRNA composition for the treatment of neuroblastoma” (THE BOARD OF REGENTS OF THE UNIVERSITY OF TEXAS SYSTEM, priority 2014, dated 2020).

Experiments:
Format in all cases: cell-based
BE(2)-C cells [1] = test: High-content screen: detection and quantification of neurite outgrowth; parameters: key: neurite length normalized to the mean of its plate; conditions: 25 nM miRNA mimic, 4 days transfection, normalized to plate mean
Experimental: FIG. 2A-2C. HCS screening of miRNA mimics identifies miRNAs that induce neurite outgrowth in BE(2)-C cells. (A-B) 2,500 cells were reverse-transfected with 25 nM miRNA mimics in 96-well plates. After 4 days transfection, relative neurite lengths were quantified as above. (A) The distribution of post-normalized neurite length measurements (grey histogram) for individual miRNA mimics from the screen and the fitted Gamma distribution curve (␣=3.27, ┘=0.444) (B) Correlation between two independent neurite length measurements for one library plate. Cells were transfected with 25 nM mimics in two independent 96-well plates. Normalized neurite lengths were measured as above. Correlation of neurite length between the two plates was analyzed using two-tailed Pearson Correlation with p<0.05 considered significant. (C) The distribution of the neurite lengths for untreated BE(2)-C cells. 2,500 Cells were plated into each well in 96 well plates. After 4 days of culture, neurite lengths were analyzed as above. Shown are the neurite length distribution histogram, the empirical density curve, and the fitted Gamma distribution curve (␣=30.23, ␣=0.033).
Detection and Quantification of Neurite Outgrowth. Cells were plated and treated in 96-well plates. For detecting neurite outgrowth, cells were placed into ZOOM IncuCyte Imaging System (Essen BioScience) and cell images were taken under 20× microscopic magnification. For detecting neurite outgrowth in a time-dependent manner, cell images were taken every 6 h. The neurite lengths associated with each treatment were calculated using the neurite definition defined for each specific cell line using the NeuroTrack system (Essen BioScience).
Analysis of HCS Data. The relative neurite length associated with cells in each well on the screen plates was determined as above. In order to allow for plate-to-plate comparison, neurite length associated with each well in each plate was first internally normalized to the mean of the corresponding plate, and multiple screen plates were then aggregated together to generate the neurite length distribution. The data were then further analyzed to determine the distribution of the unaffected cells as described below, and to identify differentiation-inducing miRNA mimics.
Statistical Analysis. For HCS, p-value for neurite length associated with each miRNA mimic was evaluated by assuming the distribution of neurite lengths follows Gamma distribution, and false Discovery Rate (FDR) was determined by Benjamini-Hochberg correction method for multiple tests (Benjamin, Journal of the Royal Statistical Society Series B (Methodological), 1995, 57(1):12). […] For all other conditions, the statistical significance for each treatment was determined using t-test by comparing the treatment group with control, with p<0.05 considered statistically significant.

[2] = system: cleaved CASPASE 3 and PARP; test: Western blots of apoptosis markers in BE(2)-C cells; conditions: ATRA 5 days, dose-dependent
Experimental: (§1) Western Blots. Cell lysates were prepared using RIPA buffer. Protein concentration was determined using the Pierce BCA assay (Thermo Fisher Scientific). For electrophoresis, equal amounts of cell lysate were resolved by SDS-PAGE and transferred to Immun-Blot PVDF membranes (Bio-Rad Laboratories). Membranes were blocked and probed with primary antibodies to specific proteins. Bound antibodies were detected with secondary antibodies conjugated with horseradish peroxidase (HRP) visualized by enhanced chemiluminescent (ECL) substrate (Pierce).

BE(2)-C cells [3] = test: Cell Viability Assay (CellTiter-Glo)
Experimental: Cell Viability Assay. Cells were plated in 96-well format and treated as specified. After culturing for 120 h, cell viability was determined using the CellTiter-Glo Luminescent Cell Viability Assay (Promega).

PCNA and Ki67 = test: Western blots of cell proliferation markers in BE(2)-C cells; conditions: ATRA 5 days, dose-dependent
Experimental: as §1

[4] = system: GAP43, NSE and β-TUBULIN III; test: Western blots of differentiation markers in BE(2)-C cells; conditions: ATRA 5 days, dose-dependent
Experimental: as §1

BE(2)-C cells [5] = test: High-content screen: detection and quantification of neurite outgrowth; conditions: ATRA vs carrier (DMSO), 5 days

Compound: hsa-miR-34a-5p: miRNA mimic, mature sequence UGGCAGUGUCUUAGCUGGUUGU (SEQ ID NO: 7) (UGGCAGUGUCUUAGCUGGUUGU(2); as printed in the source, key not given here)
- Neurite length (mean ± SD) (BE(2)-C cells [1]): 9.49 ± 3.18

Compound: hsa-miR-137: miRNA mimic, mature sequence UUAUUGCUUAAGAAUACGCGUAG (SEQ ID NO: 16) (listed as RNA, chemistry not given here)
- Neurite length (mean ± SD) (BE(2)-C cells [1]): 7.03 ± 1.36

Compound: hsa-miR-34b-Sp: miRNA mimic, mature sequence UAGGCAGUGUCAUUAGCUGAUUG (SEQ ID NO: 12) (listed as RNA, chemistry not given here)
- Neurite length (mean ± SD) (BE(2)-C cells [1]): 8.41 ± 2.16

Compound: hsa-miR-450b-3p: miRNA mimic, mature sequence UUGGGAUCAUUUUGCAUCCAUA (SEQ ID NO: 9) (listed as RNA, chemistry not given here)
- Neurite length (mean ± SD) (BE(2)-C cells [1]): 9.26 ± 2.64

Compound: hsa-miR-103a-3p: miRNA mimic, mature sequence AGCAGCAUUGUACAGGGCUAUGA (SEQ ID NO: 8) (AGCAGCAUUGUACAGGGCUAUGA(3); as printed in the source, key not given here)
- Neurite length (mean ± SD) (BE(2)-C cells [1]): 9.43 ± 2.67

Compound: hsa-miR-3714: miRNA mimic, mature sequence GAAGGCAGCAGUGCUCCCCUGU (SEQ ID NO: 14) (listed as RNA, chemistry not given here)
- Neurite length (mean ± SD) (BE(2)-C cells [1]): 7.56 ± 1.91

Compound: CC1=C(/C=C/C(C)=C/C=C/C(C)=C/C(=O)O)C(C)(C)CCC1 [ATRA, all-trans retinoic acid]
- Expression of apoptosis markers (cleaved CASPASE 3, PARP) [2]: increases expression of apoptosis markers
- Cell viability (BE(2)-C cells [3]; 5 days, dose-dependent): decreases cell viability
- Expression of cell proliferation markers (PCNA, Ki67) (PCNA and Ki67): inhibits expression of cell proliferation markers
- Expression of neuroblastoma differentiation markers (GAP43, NSE, β-TUBULIN III) [4]: stimulates expression of neuroblastoma differentiation markers
- Relative neurite length compared to control (BE(2)-C cells [5]): significantly increases the relative neurite length

Compound: hsa-miR-449b-5p: miRNA mimic, mature sequence AGGCAGUGUAUUGUUAGCUGGC (SEQ ID NO: 15) (AGGCAGUGUAUUGUUAGCUGGC(2); as printed in the source, key not given here)
- Neurite length (mean ± SD) (BE(2)-C cells [1]): 7.40 ± 1.85

Compound: hsa-miR-135b-5p: miRNA mimic, mature sequence UAUGGCUUUUCAUUCCUAUGUGA (SEQ ID NO: 6) (listed as RNA, chemistry not given here)
- Neurite length (mean ± SD) (BE(2)-C cells [1]): 14.02 ± 4.29

Compound: CC1=C(/C=C/C(C)=C/C=C/C(C)=C\C(=O)O)C(C)(C)CCC1 [cis-RA, 13-cis retinoic acid]
- Cell viability when reaching plateau (BE(2)-C cells [3]; treated for 5 days): 42.6±3.7%

Compound: hsa-miR-107: miRNA mimic, mature sequence AGCAGCAUUGUACAGGGCUAUCA (SEQ ID NO: 13) (AGCAGCAUUGUACAGGGCUAUCA(3); as printed in the source, key not given here)
- Neurite length (mean ± SD) (BE(2)-C cells [1]): 7.60 ± 1.98

Compound: hsa-miR-3937: miRNA mimic, mature sequence ACAGGCGGCUGUAGCAAUGGGGG (SEQ ID NO: 17) (listed as RNA, chemistry not given here)
- Neurite length (mean ± SD) (BE(2)-C cells [1]): 6.93 ± 1.05

Compound: hsa-miR-449a: miRNA mimic, mature sequence UGGCAGUGUAUUGUUAGCUGGU (SEQ ID NO: 10) (UGGCAGUGUAUUGUUAGCUGGU(2); as printed in the source, key not given here)
- Neurite length (mean ± SD) (BE(2)-C cells [1]): 9.16 ± 2.47
